The record followed here is patent publication US20200206173A1, “A PERSONAL CARE COMPOSITION” (Conopco, Inc., d/b/a UNILEVER, priority 2017, published 2020).

This assay deals with IL-6 in THP-1 monocytes. Briefly: Anti-inflammation efficacy in THP-1 in vitro assay: IL-6 in supernatant by ELISA after LPS stimulation. Type of assay: cell-based. The settings on record: LPS 1 μg/mL, 24 hours, PMA-differentiated THP-1. How it is done: The following procedure was used to test the anti-inflammation efficacy of the various actives alone or in combination. • (i) 5×10^5 THP-1 monocytes were placed into 24-well plates, with 100 nM PMA in the culture media to differentiate the cell. • (ii) After 72 hours differentiation, treatments as follows were supplemented into fresh media and applied to the cells: • Example 1: Vehicle control with LPS (1 μg/mL) stimulation • Example 2,3: DHA at 100 or 20 μM alone with LPS (1 μg/mL) stimulation. • Example 4,5: Niacinamide at 10000 or 5000 μM alone with LPS (1 μg/mL) stimulation. • Example 6,7: Combinations of 100 μM DHA and either 10000 or 5000 μM of niacinamide. • Example 8: Combination of 20 μM DHA and 10000 μM of niacinamide. • (iii) After 24 hours incubation, the supernatants were collected. • (iv) Then IL-6 concentration was quantified in the supernatant by BD Elisa kit. • (v) IL-6 inhibition rate was calculated in comparison with vehicle control with LPS stimulation as a reference for each treatment.
The lower the percentage, the higher the anti-inflammatory potential. The CI value (combination index) of the various combinations is also less than 1 indicating synergism.
The data below is expressed in % IL-6 inhibition rate in Table-2 below. • (i) 5×10^5 THP-1 monocytes were placed into 24-well plates, with 100 nM PMA in the culture media to differentiate the cell. • (ii) After 72 hours differentiation, treatments as follows were supplemented into fresh media and applied to the cells: • Example 9: Vehicle control with LPS (1 μg/mL) stimulation • Example 10,11,12: DHA at 100, 50 or 25 μM alone with LPS (1 μg/mL) stimulation. • Example 13,14,15: Niacinamide at 5000, 2500 or 1250 μM alone with LPS (1 μg/mL) stimulation. • Example 16: Combinations of 100 μM DHA and 5000 μM of niacinamide. • Example 17: Combination of 50 μM DHA and 2500 μM of niacinamide. • Example 18: Combination of 25 μM DHA and 1250 μM of niacinamide. • (iii) After 24 hours incubation, the supernatants were collected. • (iv) Then IL-6 concentration was tested in the supernatant by BD Elisa Kit. • (v) IL-6 inhibition rate was calculated in comparison with vehicle control with LPS stimulation as reference, for each treatment.
Experiments were carried out at various concentrations of DHA and niacinamide at mole ratios outside the invention i.e., at 1:12.5. The data below is expressed in % IL-6 inhibition rate in Table-3 below: • (i) 5×10^5 THP-1 monocytes were placed into 24-well plates, with 100nM PMA in the culture media to differentiate the cell. • (ii) After 72 hours differentiation, treatments as follows were supplemented into fresh media and applied to the cells: • Example 20: Vehicle control with LPS (1 μg/mL) stimulation • Example 21,22,23: DHA at 100, 50 or 25 μM alone with LPS (1 μg/mL) stimulation. • Example 24,25,26: Niacinamide at […] alone with LPS (1 μg/mL) stimulation. • Example 27: Combinations of 100 μM DHA and 1250 μM of niacinamide. • Example 28: Combination of 50 μM DHA and 625 μM of niacinamide. • Example 29: Combination of 25 μM DHA and […] of niacinamide. • (iii) After 24 hours incubation the supernatants were collected. • (iv) Then IL-6 concentration was tested in the supernatant by BD Elisa Kit. • (v) IL-6 inhibition rate was calculated in comparison with vehicle control with LPS stimulation as reference, for each treatment.

Each structure is given as a SMILES string.

For the compound `NC(=O)c1cccnc1` [Example 4, niacinamide], the “% of LPS (concentration of IL-6 as a % of that obtained for LPS)” value (“% of LPS” for short) by setting is: (317.5 μM of niacinamide alone) 84.2%; (625 μM of niacinamide alone) 77.6%; (1250 μM of niacinamide alone, listed as 15) 64.5%; (1250 μM of niacinamide alone, listed as 24) 35.4%; (2500 μM of niacinamide alone) 50.8%; (5000 μM of niacinamide alone, listed as 5) 33.4%. Also, the “% of LPS” value runs as follows: (5000 μM of niacinamide alone, listed as 13) 26.5%; (10000 μM of niacinamide alone) 5.7%.
In the case of `CC/C=C\C/C=C\C/C=C\C/C=C\C/C=C\C/C=C\CCC(=O)O` [Example 2, docosahexaenoic acid], the “% of LPS” value is, setting by setting: (20 μM of DHA alone) 58.5%; (25 μM of DHA alone) 65.5%; (50 μM of DHA alone) 38.7%; (100 μM of DHA alone) 14.7%; (100 μM of DHA alone, listed as 10) 8.3%; (100 μM of DHA alone, listed as 21) 8.3%.
